# Test results from article PMC5570892, “Indole-based perenosins as highly potent HCl transporters and potential anti-cancer agents” (Scientific Reports, 2017).
# Where two headings read alike, the source gives them in different places.
# What was measured:
# [1] = test system: MDA-MB-231 cells; assay: MTT cell viability assay; assay type: cell-based; conditions: Homo sapiens, error from three repeats in brackets
# Method: Herein, we carried out further in vitro studies at the University of Barcelona for the full library of perenosins. Single dose screening for cell viability using the methylthiazoletetrazolium (MTT) colorimetric assay over five different cell lines (cancer cells MCF-7, MDA-MB-231, A549 and SW620, and non-cancerous human cells MCF-10A) was conducted.
# While perenosin 5, with pentyl substituent at R3, has similar cell viability effects as 1d, bis-indole perenosin 7 with pentyl substituent at R1 has a moderate degree of late onset by a factor of 7.
# S11.1 Cell Lines and Culture Conditions
# The human cell lines were obtained from the American Type Culture Collection (ATCC, Manassas VA). Breast adenocarcinoma MDA-MB-231 and MCF-7 cells were maintained in DMEM:F12 media (1:1; Biological Industries, Beit Haemek, Israel), and 10 µg/ml insulin and 50 µM sodium pyruvate from Sigma-Aldrich Chemical Co. (St. Louis, MO) were added to MCF-7 cells. Lung adenocarcinoma A549 and colorectal adenocarcinoma SW620 cells were cultured in DMEM media. All were supplemented with 10% foetal bovine serum (FBS; Invitrogen-Life Technologies, Carlsbad, CA) and 100 U/mL penicillin, 100 µg/mL streptomycin and 2 mM L-glutamine, all from Biological Industries.
# Mammary epithelial MCF-10A cells were maintained in DMEM:F12 media supplemented with 5% horse serum (Life Technologies), 20 ng/ml EGF, 0.5 µg/ml Hydrocortisone, 100 ng/ml Cholera toxin, 10 µg/ml insulin all from Sigma-Aldrich and 100 U/ml penicillin, 100 µg/ml streptomycin, and 2 mM L- glutamine (Biological Industries). Cells were grown at 37 °C under a 5% CO2 atmosphere.
# S11.2 Cell Viability Assays
# Cell viability was evaluated using the methylthiazoletetrazolium (MTT) colorimetric assay. Cancer cells (MCF-7, MDA-MB-231, A549 and SW620) or non-cancerous human cells MCF-10A cells were harvested (10^4 cells/well) in 96-well plates in a final volume of 100 µl and allowed to grow overnight.
# After 24 h, vehicle solution (DMSO) or experimental compounds were added at 10 µM (single point experiment) or at different ranging concentrations (0.8-100 µM) to the assay plate and were incubated for 24 or 72 h. Then, 10 µl of MTT (5 mg/ml; Sigma-Aldrich) were added and the plates were incubated for 4 h at 37°C. 100 µl of DMSO (Sigma-Aldrich) were added to dissolve crystals and the reading was taken spectrophotometrically at 570 nm using a multi-well plate reader (Multiskan FC, Thermo Scientific, Waltham, MA, USA). Cell viability and inhibitory concentration (IC) values were obtained using GraphPad Prism v5.0 (Graphpad Software, San Diego, CA, USA). All data are shown as the mean value ± standard deviation (S.D.) of three independent experiments.
# [2] = HPTS assay with TBAOH (electrogenic H+ or OH- transport); assay type: biochemical; conditions: sodium gluconate vesicles, pH 7.0; CCCP at 0.1 mol%; perenosins at loading giving 100% in NMDG-Cl assay
# Method: S10.8. General Procedure for the HPTS Assay
# Unilamellar vesicles were prepared using previously reported literature procedures16. A lipid film of POPC (1-palmitoyl-2-oleoyl-sn-glycero-3-phosphocholine) was prepared from a chloroform solution under reduced pressure and then dried under vacuum for 4 or more hours. The lipid film was rehydrated by vortexing with an internal solution containing HPTS (1 mM). The lipid suspension was then subjected to 9 freeze-thaw cycles and left to rest at room temperature for 30 minutes. After this, the suspension was extruded 25 times through a 200 nm polycarbonate membrane resulting in unilamellar vesicles of a mean diameter of 200 nm. The un-encapsulated HPTS was removed by size exclusion chromatography using a sephadex G-25 column and an external solution eluent that does not contain HPTS. […]
# After 200 s, detergent (50 μL of Triton X-100 (11 w%) in H2O:DMSO (7:1 v/v)) was added to lyse the vesicles and after 5 mins a final reading was taken. […]
# The fractional fluorescence intensity (If) was calculated using: […]
# where Rt is the fluorescence ratio at time t, R0 is the fluorescence ratio at time 0 and Rd is the fluorescence ratio at the end of the experiment, after the addition of detergent. […]
# [3] = MDA-MB-231, 24 h exposure, read-out: IC50 (24 h)
# [4] = MDA-MB-231, 72 h exposure, read-out: IC50 (72 h)
Compound,"IC50 [1, 3]","IC50 [1, 4]",H+ or OH- transport (TBAOH base pulse) [2]
COc1cc(/N=C/c2[nH]c(C)cc2C)c2[nH]ccc2c1 [Perenosin 1e],38.4 µM,32.7 µM,–
Cc1cc(/N=C/c2[nH]c(C)cc2C)c2[nH]ccc2c1 [Perenosin 1c],34.4 µM,20.4 µM,–
Cc1cc(C)c(/C=N/c2cccc3cc[nH]c23)[nH]1 [Perenosin 1a],38.3 µM,24.4 µM,–
N#CC(C#N)=NNc1cccc(Cl)c1 [CCCP],–,–,100%
Cc1cc(C)c(/C=N/c2cc(C(F)(F)F)cc3cc[nH]c23)[nH]1 [Perenosin 1b],32.2 µM,22.1 µM,–
